Reference: ChEMBL document CHEMBL1201861, “Genomics of Drug Sensitity in Cancer screening data, Wellcome Trust Sanger Institute”

Key:
BL-70 = test: SANGER: Inhibition of human BL-70 cell growth in a cell viability assay.; format: functional, cell-based; details: Homo sapiens, BL-70
DMS-153 = test: cells; format: functional, cell-based, Homo sapiens; details: Homo sapiens, DMS-153
Description: SANGER: Inhibition of human DMS-153 cell growth in a cell viability assay.

SCLC-21H = test: cells; format: functional, cell-based, Homo sapiens; details: Homo sapiens, SCLC-21H;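 also: growth inhibition of cultured human SCLC-21H cells, read out with a cell viability assay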
Description: SANGER: Inhibition of human SCLC-21H cell growth in a cell viability assay.

SUP-T1 = test: cells; format: functional, cell-based, Homo sapiens; details: Homo sapiens, SUP-T1;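 also: growth inhibition of human SUP-T1 cells, read out as cell viability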
Description: SANGER: Inhibition of human SUP-T1 cell growth in a cell viability assay.

MC-CAR = test: cells; format: functional, cell-based, Homo sapiens; details: Homo sapiens, MC-CAR;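 also: growth inhibition of the human MC-CAR cell line, read out by a cell viability assay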
Description: SANGER: Inhibition of human MC-CAR cell growth in a cell viability assay.

CHP-126 = test: cells; format: functional, cell-based, Homo sapiens; details: Homo sapiens, CHP-126
Description: SANGER: Inhibition of human CHP-126 cell growth in a cell viability assay.

SNU-16 = test: cells; format: functional, cell-based, Homo sapiens; details: Homo sapiens, SNU-16;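 also: growth inhibition of human SNU-16 cells, determined with a cell viability readout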
Description: SANGER: Inhibition of human NCI-SNU-16 cell growth in a cell viability assay.

LC-1F = test: cells; format: functional, cell-based, Homo sapiens; details: Homo sapiens, LC-1F;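 also: growth inhibition of human LC-1F cells, read out with a cell viability assay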
Description: SANGER: Inhibition of human LC-1F cell growth in a cell viability assay.

NCI-H524 = test: cells; format: functional, cell-based, Homo sapiens; details: Homo sapiens, NCI-H524;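 also: growth inhibition of human NCI-H524 cells, read out through a cell viability assay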
Description: SANGER: Inhibition of human NCI-H524 cell growth in a cell viability assay.

NCI-H748 = test: cells; format: functional, cell-based, Homo sapiens; details: Homo sapiens, NCI-H748;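 also: growth inhibition of NCI-H748 cells, measured by a cell viability assay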
Description: SANGER: Inhibition of human NCI-H748 cell growth in a cell viability assay.

LP-1 = test: cells; format: functional, cell-based, Homo sapiens; details: Homo sapiens, LP-1;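 also: growth inhibition of human LP-1 cells, with the read-out taken from a cell viability assay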
Description: SANGER: Inhibition of human LP-1 cell growth in a cell viability assay.

THP-1 = test: cells; format: functional, cell-based, Homo sapiens; details: Homo sapiens, THP-1;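 also: growth inhibition of THP-1 cells, read out via a cell viability assay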
Description: SANGER: Inhibition of human THP-1 cell growth in a cell viability assay.

LU-165 = test: cells; format: functional, cell-based, Homo sapiens; details: Homo sapiens, LU-165
Description: SANGER: Inhibition of human LU-165 cell growth in a cell viability assay.

L-540 = test: cells; format: functional, cell-based, Homo sapiens; details: Homo sapiens, L-540;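 also: growth inhibition of the human L-540 cell line, read out with a viability assay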
Description: SANGER: Inhibition of human L-540 cell growth in a cell viability assay.

MRK-nu-1 = test: cells; format: functional, cell-based, Homo sapiens; details: Homo sapiens, MRK-nu-1;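 also: cell viability assay measuring growth suppression of human MRK-nu-1 cells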
Description: SANGER: Inhibition of human MRK-nu-1 cell growth in a cell viability assay.

DU-145 = test: cells; format: functional, cell-based, Homo sapiens; details: Homo sapiens, DU-145
Description: SANGER: Inhibition of human DU-145 cell growth in a cell viability assay.

NCI-H810 = test: cells; format: functional, cell-based, Homo sapiens; details: Homo sapiens, NCI-H810;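 also: IC50 reflects inhibition of cancer cell line growth, read out with a cell viability assay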
Description: SANGER: Inhibition of human NCI-H810 cell growth in a cell viability assay.

A-375 = test: cells; format: functional, cell-based, Homo sapiens; details: Homo sapiens, A-375;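 also: growth inhibition of A375 cells, read out with a cell viability assay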
Description: SANGER: Inhibition of human A375 cell growth in a cell viability assay.

BHT-101 = test: cells; format: functional, cell-based, Homo sapiens; details: Homo sapiens, BHT-101
Description: SANGER: Inhibition of human BHT-101 cell growth in a cell viability assay.

CAL-62 = test: cells; format: functional, cell-based, Homo sapiens; details: Homo sapiens, CAL-62;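 also: growth inhibition of CAL-62 cells, read out with a cell viability assay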
Description: SANGER: Inhibition of human CAL-62 cell growth in a cell viability assay.

H4 = test: cells; format: functional, cell-based, Homo sapiens; details: Homo sapiens, H4
Description: SANGER: Inhibition of human H4 cell growth in a cell viability assay.

VMRC-RCZ = test: cells; format: functional, cell-based, Homo sapiens; details: Homo sapiens, VMRC-RCZ
Description: SANGER: Inhibition of human VMRC-RCZ cell growth in a cell viability assay.

MDA-MB-453 = test: cells; format: functional, cell-based, Homo sapiens; details: Homo sapiens, MDA-MB-453
Description: SANGER: Inhibition of human MDA-MB-453 cell growth in a cell viability assay.

G-401 = test: cells; format: functional, cell-based, Homo sapiens; details: Homo sapiens, G-401
Description: SANGER: Inhibition of human G-401 cell growth in a cell viability assay.

CAMA-1 = test: cells; format: functional, cell-based, Homo sapiens; details: Homo sapiens, CAMA-1;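 also: growth inhibition of CAMA-1 cells, read out with a cell viability assay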
Description: SANGER: Inhibition of human CAMA-1 cell growth in a cell viability assay.

HO-1-N-1 = test: cells; format: functional, cell-based, Homo sapiens; details: Homo sapiens, HO-1-N-1;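 also: growth inhibition of human HO-1-N-1 cells, read out with a cell viability assay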
Description: SANGER: Inhibition of human HO-1-N-1 cell growth in a cell viability assay.

HT1197 = test: cells; format: functional, cell-based, Homo sapiens, HT-1197; details: Homo sapiens, HT1197
Description: SANGER: Inhibition of human HT-1197 cell growth in a cell viability assay.

C3A = test: cells; format: functional, cell-based, Homo sapiens; details: Homo sapiens, C3A;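 also: growth inhibition of C3A human cells, quantified with a cell viability readout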
Description: SANGER: Inhibition of human C3A cell growth in a cell viability assay.

CaR-1 = test: cells; format: functional, cell-based, Homo sapiens; details: Homo sapiens, CaR-1;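 also: growth inhibition of human CaR-1 cancer cells, read out with a cell viability assay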
Description: SANGER: Inhibition of human CaR-1 cell growth in a cell viability assay.

DoTc2-4510 = test: cells; format: functional, cell-based, Homo sapiens; details: Homo sapiens, DoTc2-4510
RCM-1 = test: cells; format: functional, cell-based, Homo sapiens; details: Homo sapiens, RCM-1;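 also: growth inhibition of the RCM-1 line, determined with a cell viability readout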
Description: SANGER: Inhibition of human RCM-1 cell growth in a cell viability assay.

HTC-C3 = test: cells; format: functional, cell-based, Homo sapiens; details: Homo sapiens, HTC-C3;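 also: inhibition of cell growth, read out with a cell viability assay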
Description: SANGER: Inhibition of human HTC-C3 cell growth in a cell viability assay.

KYSE-180 = test: cells; format: functional, cell-based, Homo sapiens; details: Homo sapiens, KYSE-180;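 also: growth inhibition of KYSE-180 cells, read out with a cell viability assay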
Description: SANGER: Inhibition of human KYSE-180 cell growth in a cell viability assay.

Ca-Ski = test: cells; format: functional, cell-based, Homo sapiens; details: Homo sapiens, Ca-Ski;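 also: cell viability assay measuring inhibition of Ca-Ski cell growth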
Description: SANGER: Inhibition of human Ca-Ski cell growth in a cell viability assay.

HT-1080 = test: cells; format: functional, cell-based, Homo sapiens; details: Homo sapiens, HT-1080
Description: SANGER: Inhibition of human HT-1080 cell growth in a cell viability assay.

SW1417 = test: cells; format: functional, cell-based, Homo sapiens; details: Homo sapiens, SW1417;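 also: growth inhibition of human SW1417 cells, read out with a cell viability assay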
Description: SANGER: Inhibition of human SW1417 cell growth in a cell viability assay.

SW1710 = test: cells; format: functional, cell-based, Homo sapiens; details: Homo sapiens, SW1710;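 also: growth inhibition of SW1710 cells, determined with a cell viability assay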
Description: SANGER: Inhibition of human SW1710 cell growth in a cell viability assay.

SNU-387 = test: cells; format: functional, cell-based, Homo sapiens; details: Homo sapiens, SNU-387
Description: SANGER: Inhibition of human SNU-387 cell growth in a cell viability assay.

HT55 = test: cells; format: functional, cell-based, Homo sapiens; details: Homo sapiens, HT55;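 also: cell viability readout measuring growth inhibition of human HT55 cells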
Description: SANGER: Inhibition of human HT55 cell growth in a cell viability assay.

LU-99A = test: cells; format: functional, cell-based, Homo sapiens; details: Homo sapiens, LU-99A;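 also: growth inhibition of LU-99A cells, read out with a cell viability assay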
Description: SANGER: Inhibition of human LU-99A cell growth in a cell viability assay.

NY = test: cells; format: functional, cell-based, Homo sapiens; details: Homo sapiens, NY
Description: SANGER: Inhibition of human NY cell growth in a cell viability assay.

SW1088 = test: cells; format: functional, cell-based, Homo sapiens; details: Homo sapiens, SW1088;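 also: growth inhibition of human SW1088 cells, read out by a cell viability assay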
Description: SANGER: Inhibition of human SW1088 cell growth in a cell viability assay.

WM-115 = test: cells; format: functional, cell-based, Homo sapiens; details: Homo sapiens, WM-115
Description: SANGER: Inhibition of human WM-115 cell growth in a cell viability assay.

MDA-MB-175-VII = test: cells; format: functional, cell-based, Homo sapiens; details: Homo sapiens, MDA-MB-175-VII
FTC-133 = test: cells; format: functional, cell-based, Homo sapiens; details: Homo sapiens, FTC-133
SW48 = test: cells; format: functional, cell-based, Homo sapiens; details: Homo sapiens, SW48;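 also: growth inhibition of SW48 cells, read out with a cell viability assay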
Description: SANGER: Inhibition of human SW48 cell growth in a cell viability assay.

Capan-2 = test: cells; format: functional, cell-based, Homo sapiens; details: Homo sapiens, Capan-2;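 also: Capan-2 cell growth inhibition, read out with a viability assay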
Description: SANGER: Inhibition of human Capan-2 cell growth in a cell viability assay.

SK-MEL-24 = test: cells; format: functional, cell-based, Homo sapiens; details: Homo sapiens, SK-MEL-24;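 also: growth inhibition read out by a cell viability assay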
Description: SANGER: Inhibition of human SK-MEL-24 cell growth in a cell viability assay.

Measured: IC50

COc1cc(N2CCN(C)CC2)ccc1Nc1ncc2c(n1)N(C)c1ccccc1C(=O)N2C
> 8 µM: BL-70 | DMS-153 | SCLC-21H | MC-CAR | CHP-126 | SNU-16 | LC-1F | NCI-H524 | NCI-H748 | LP-1 | THP-1 | LU-165 | L-540 | MRK-nu-1
2.23 µM: SUP-T1

COc1cc(-c2nn([C@H]3CC[C@H](N4CCN(C(C)=O)CC4)CC3)c3ncnc(N)c23)ccc1NC(=O)c1cc2ccccc2n1C
< 0.02 µM: BL-70
> 5.12 µM: DMS-153 | SCLC-21H | SUP-T1 | MC-CAR | CHP-126 | SNU-16 | LC-1F | NCI-H524 | NCI-H748 | LP-1 | THP-1 | LU-165 | L-540
2.95 µM: MRK-nu-1

COc1cc2c(Nc3ccc(NC(=O)c4ccccc4)cc3)ncnc2cc1OCCCN1CCOCC1
2.15 µM: HO-1-N-1
3.85 µM: A-375
1.82 µM: H4
1.23 µM: SW48
not listed: BL-70 | DMS-153 | SCLC-21H | SUP-T1 | MC-CAR | CHP-126 | SNU-16 | LC-1F | NCI-H524 | NCI-H748 | LP-1 | THP-1 | LU-165 | L-540 | MRK-nu-1
> 4 µM: all other assays above

OCCCNc1cc(-c2ccnc(Nc3cccc(Cl)c3)n2)ccn1
0.136 µM: SNU-16
0.193 µM: L-540
0.121 µM: MC-CAR
0.135 µM: CHP-126
0.0521 µM: LP-1
0.117 µM: LC-1F
0.0373 µM: MRK-nu-1
0.0764 µM: NCI-H748
> 0.256 µM: DMS-153 | SCLC-21H | SUP-T1 | NCI-H524 | THP-1 | LU-165
0.0301 µM: BL-70

Cc1ccc(-c2c(C(=O)CCl)n(CCCO)c3ncnc(N)c23)cc1
2.52 µM: MRK-nu-1
> 4 µM: BL-70 | DMS-153 | SCLC-21H | SUP-T1 | MC-CAR | CHP-126 | SNU-16 | LC-1F | NCI-H524 | NCI-H748 | LP-1 | THP-1 | LU-165 | L-540

C#Cc1cccc(Nc2ncnc3cc(OCCOC)c(OCCOC)cc23)c1 [ERLOTINIB]
> 2 µM: BL-70 | DMS-153 | SUP-T1 | MC-CAR | CHP-126 | SNU-16 | NCI-H524 | NCI-H748 | LP-1 | THP-1 | LU-165 | L-540 | MRK-nu-1
0.606 µM: LC-1F

CN(C)C(=N)NC(=N)N [METFORMIN]
12900 µM: MDA-MB-453
11000 µM: CAMA-1
6420 µM: BHT-101
11300 µM: C3A
> 20000 µM: NCI-H810 | CAL-62 | H4 | HT1197 | CaR-1 | DoTc2-4510 | RCM-1 | HTC-C3 | Ca-Ski | HT-1080 | SW1710 | SNU-387 | HT55 | SW1088 | WM-115 | MDA-MB-175-VII | FTC-133 | SW48 | SK-MEL-24
1590 µM: G-401
9060 µM: KYSE-180
13200 µM: HO-1-N-1
14100 µM: NY
838 µM: DU-145

CC1(C)CNc2cc(NC(=O)c3cccnc3NCc3ccncc3)ccc21 [MOTESANIB]
0.469 µM: DU-145
not listed: BL-70 | DMS-153 | SCLC-21H | SUP-T1 | MC-CAR | CHP-126 | SNU-16 | LC-1F | NCI-H524 | NCI-H748 | LP-1 | THP-1 | LU-165 | L-540 | MRK-nu-1
> 2 µM: all other assays above

CCN(CC)CCCCNc1ncc2cc(-c3cc(OC)cc(OC)c3)c(NC(=O)NC(C)(C)C)nc2n1 [PD-173074]
1.58 µM: DU-145
not listed: BL-70 | DMS-153 | SCLC-21H | SUP-T1 | MC-CAR | CHP-126 | SNU-16 | LC-1F | NCI-H524 | NCI-H748 | LP-1 | THP-1 | LU-165 | L-540 | MRK-nu-1
> 2 µM: all other assays above

Cn1cnc2c(F)c(Nc3ccc(Br)cc3Cl)c(C(=O)NOCCO)cc21 [SELUMETINIB]
0.268 µM: WM-115
2.43 µM: HT-1080
0.741 µM: HO-1-N-1
0.494 µM: RCM-1
0.215 µM: HTC-C3
1.52 µM: CAL-62
0.107 µM: BHT-101
not listed: BL-70 | DMS-153 | SCLC-21H | SUP-T1 | MC-CAR | CHP-126 | SNU-16 | LC-1F | NCI-H524 | NCI-H748 | LP-1 | THP-1 | LU-165 | L-540 | MRK-nu-1 | A-375 | SK-MEL-24
> 4 µM: all other assays above
